Test results taken from the NIST ThermoML archive (doi:10.1021/acs.jced.9b00327).
± gives the expanded uncertainty stated by the source.

Experiment: mn = molality of the nth substance listed, in mol/kg
Details: 100 kPa, Liquid; for speed of sound: Single path-length method; for mass density: Vibrating tube method

Molecule `NCCCC(=O)O` [4-aminobutanoic acid] + O has a speed of sound (293.15 K, m1 = 0.09972) of 1491.4 ± 4.3 m/s, a speed of sound (293.15 K, m1 = 0.1479) of 1495.4 ± 4.3 m/s and a speed of sound (293.15 K, m1 = 0.1942) of 1499.3 ± 4.3 m/s. For the same molecule, the speed of sound (293.15 K, m1 = 0.2449) was 1503.5 ± 4.3 m/s, the speed of sound (293.15 K, m1 = 0.2937) was 1507.6 ± 4.3 m/s and the speed of sound (293.15 K, m1 = 0.3452) was 1511.8 ± 4.3 m/s. For the same molecule, the speed of sound (293.15 K, m1 = 0.3928) was 1515.7 ± 4.3 m/s, the mass density (293.15 K, m1 = 0.09972) was 1000.99 ± 1.1 kg/m3 and the mass density (293.15 K, m1 = 0.1479) was 1002.31 ± 1.1 kg/m3. For the same molecule, the mass density (293.15 K, m1 = 0.1942) was 1003.57 ± 1.1 kg/m3, the mass density (293.15 K, m1 = 0.2449) was 1004.94 ± 1.1 kg/m3 and the mass density (293.15 K, m1 = 0.2937) was 1006.23 ± 1.1 kg/m3. The mass density (293.15 K, m1 = 0.3452) was 1007.58 ± 1.1 kg/m3, the mass density (293.15 K, m1 = 0.3928) was 1008.82 ± 1.1 kg/m3 and the speed of sound (298.15 K, m1 = 0.09972) was 1505 ± 4.4 m/s. For the same molecule, the speed of sound (298.15 K, m1 = 0.1479) was 1508.9 ± 4.3 m/s, the speed of sound (298.15 K, m1 = 0.1942) was 1512.7 ± 4.3 m/s and the speed of sound (298.15 K, m1 = 0.2449) was 1516.8 ± 4.3 m/s. For the same molecule, the speed of sound (298.15 K, m1 = 0.2937) was 1520.7 ± 4.3 m/s, the speed of sound (298.15 K, m1 = 0.3452) was 1524.8 ± 4.3 m/s and the speed of sound (298.15 K, m1 = 0.3928) was 1528.7 ± 4.2 m/s. For the same molecule, the mass density (298.15 K, m1 = 0.09972) was 999.771 ± 1.1 kg/m3, the mass density (298.15 K, m1 = 0.1479) was 1001.05 ± 1.1 kg/m3 and the mass density (298.15 K, m1 = 0.1942) was 1002.26 ± 1.1 kg/m3. For the same molecule, the mass density (298.15 K, m1 = 0.2449) was 1003.56 ± 1.1 kg/m3, the mass density (298.15 K, m1 = 0.2937) was 1004.78 ± 1.1 kg/m3 and the mass density (298.15 K, m1 = 0.3452) was 1006.04 ± 1.1 kg/m3. For the same molecule, the mass density (298.15 K, m1 = 0.3928) was 1007.19 ± 1.1 kg/m3, the speed of sound (303.15 K, m1 = 0.09972) was 1517 ± 4.4 m/s and the speed of sound (303.15 K, m1 = 0.1479) was 1520.8 ± 4.3 m/s. For the same molecule, the speed of sound (303.15 K, m1 = 0.1942) was 1524.4 ± 4.3 m/s, the speed of sound (303.15 K, m1 = 0.2449) was 1528.4 ± 4.3 m/s and the speed of sound (303.15 K, m1 = 0.2937) was 1532.2 ± 4.3 m/s. For the same molecule, the speed of sound (303.15 K, m1 = 0.3452) was 1536.2 ± 4.3 m/s, the speed of sound (303.15 K, m1 = 0.3928) was 1539.9 ± 4.2 m/s and the mass density (303.15 K, m1 = 0.09972) was 998.354 ± 1.1 kg/m3. It also gave a mass density (303.15 K, m1 = 0.1479) of 999.634 ± 1.1 kg/m3, a mass density (303.15 K, m1 = 0.1942) of 1000.85 ± 1.1 kg/m3 and a mass density (303.15 K, m1 = 0.2449) of 1002.16 ± 1.1 kg/m3. For the same molecule, the mass density (303.15 K, m1 = 0.2937) was 1003.41 ± 1.1 kg/m3, the mass density (303.15 K, m1 = 0.3452) was 1004.71 ± 1.1 kg/m3 and the mass density (303.15 K, m1 = 0.3928) was 1005.89 ± 1.1 kg/m3. It also gave a speed of sound (308.15 K, m1 = 0.09972) of 1527.4 ± 4.4 m/s, a speed of sound (308.15 K, m1 = 0.1479) of 1531.1 ± 4.3 m/s and a speed of sound (308.15 K, m1 = 0.1942) of 1534.6 ± 4.3 m/s. It also gave a speed of sound (308.15 K, m1 = 0.2449) of 1538.5 ± 4.3 m/s, a speed of sound (308.15 K, m1 = 0.2937) of 1542.1 ± 4.3 m/s and a speed of sound (308.15 K, m1 = 0.3452) of 1546 ± 4.3 m/s. The speed of sound (308.15 K, m1 = 0.3928) was 1549.6 ± 4.2 m/s, the mass density (308.15 K, m1 = 0.09972) was 996.682 ± 1.1 kg/m3 and the mass density (308.15 K, m1 = 0.1479) was 997.926 ± 1.1 kg/m3. It also gave a mass density (308.15 K, m1 = 0.1942) of 999.104 ± 1.1 kg/m3, a mass density (308.15 K, m1 = 0.2449) of 1000.37 ± 1.1 kg/m3 and a mass density (308.15 K, m1 = 0.2937) of 1001.56 ± 1.1 kg/m3. It also gave a mass density (308.15 K, m1 = 0.3452) of 1002.8 ± 1.1 kg/m3, a mass density (308.15 K, m1 = 0.3928) of 1003.92 ± 1.1 kg/m3 and a speed of sound (313.15 K, m1 = 0.09972) of 1536.3 ± 4.3 m/s. For the same molecule, the speed of sound (313.15 K, m1 = 0.1479) was 1539.8 ± 4.3 m/s, the speed of sound (313.15 K, m1 = 0.1942) was 1543.2 ± 4.3 m/s and the speed of sound (313.15 K, m1 = 0.2449) was 1547 ± 4.3 m/s. The speed of sound (313.15 K, m1 = 0.2937) was 1550.5 ± 4.3 m/s, the speed of sound (313.15 K, m1 = 0.3452) was 1554.3 ± 4.3 m/s and the speed of sound (313.15 K, m1 = 0.3928) was 1557.8 ± 4.2 m/s. For the same molecule, the mass density (313.15 K, m1 = 0.09972) was 994.848 ± 1.1 kg/m3, the mass density (313.15 K, m1 = 0.1479) was 996.089 ± 1.1 kg/m3 and the mass density (313.15 K, m1 = 0.1942) was 997.262 ± 1.1 kg/m3. The mass density (313.15 K, m1 = 0.2449) was 998.525 ± 1.1 kg/m3, the mass density (313.15 K, m1 = 0.2937) was 999.722 ± 1.1 kg/m3 and the mass density (313.15 K, m1 = 0.3452) was 1000.96 ± 1.1 kg/m3. For the same molecule, the mass density (313.15 K, m1 = 0.3928) was 1002.08 ± 1.1 kg/m3, the speed of sound (318.15 K, m1 = 0.09972) was 1543.7 ± 4.2 m/s and the speed of sound (318.15 K, m1 = 0.1479) was 1547.1 ± 4.2 m/s. The speed of sound (318.15 K, m1 = 0.1942) was 1550.4 ± 4.2 m/s, the speed of sound (318.15 K, m1 = 0.2449) was 1554 ± 4.2 m/s and the speed of sound (318.15 K, m1 = 0.2937) was 1557.5 ± 4.2 m/s. It also gave a speed of sound (318.15 K, m1 = 0.3452) of 1561.1 ± 4.2 m/s, a speed of sound (318.15 K, m1 = 0.3928) of 1564.5 ± 4.2 m/s and a mass density (318.15 K, m1 = 0.09972) of 992.851 ± 1.1 kg/m3. It also gave a mass density (318.15 K, m1 = 0.1479) of 994.097 ± 1.1 kg/m3, a mass density (318.15 K, m1 = 0.1942) of 995.285 ± 1.1 kg/m3 and a mass density (318.15 K, m1 = 0.2449) of 996.567 ± 1.1 kg/m3. It also gave a mass density (318.15 K, m1 = 0.2937) of 997.781 ± 1.1 kg/m3, a mass density (318.15 K, m1 = 0.3452) of 999.045 ± 1.1 kg/m3 and a mass density (318.15 K, m1 = 0.3928) of 1000.2 ± 1.1 kg/m3.
